ChEMBL document CHEMBL2146470, “Novel Carboxamide-Based Allosteric MEK Inhibitors: Discovery and Optimization Efforts toward XL518 (GDC-0973)” (ACS Med Chem Lett, 2012)

What was measured:
[1] = tested on: Mus musculus; test: Inhibition of MEK-mediated ERK T202/Y204 phosphorylation in human MDA-MB-231T cells xenografted in nude NCr mouse tumor at 20 mg/kg, po after 24 hrs by immunoblotting; format: functional
[2] = Apparent permeability across MDCK cells; format: ADME, cell-based, Canis lupus familiaris; conditions: dog
[3] = Plasma concentration in nude NCr mouse xenografted with human MDA-MB-231T cells at 100 mg/kg, po measured after 24 hrs by LC-MS analysis; format: ADME, organism-based; parameters: dose 100 mg/kg, route oral
[4] = tested on: Brain; test: Drug metabolism in brain of nude NCr mouse xenografted with human MDA-MB-231T cells assessed as 3,4-difluoro-2-(2-fluoro-4-iodophenylamino)benzoic acid level at 100 mg/kg, po measured after 24 hrs by LC-MS analysis; format: ADME, organism-based; parameters: dose 100 mg/kg, route oral; conditions: in vivo
[5] = tested on: Mus musculus; test: Inhibition of MEK-mediated ERK T202/Y204 phosphorylation in human MDA-MB-231T cells xenografted in nude NCr mouse tumor at 100 mg/kg, po after 24 hrs by immunoblotting; format: functional
[6] = Oral bioavailability in Sprague-Dawley rat at 5 mg/kg; format: ADME, organism-based; conditions: in vivo
[7] = Protein binding in serum; format: ADME, cell-free
[8] = Drug uptake in brain of nude NCr mouse xenografted with human MDA-MB-231T cells at 5 mg/kg, po measured after 24 hrs by LC-MS analysis; format: ADME, organism-based; parameters: dose 5 mg/kg, route oral; conditions: read-out: Drug uptake
[9] = Drug uptake in brain of nude NCr mouse xenografted with human MDA-MB-231T cells at 10 mg/kg, po measured after 24 hrs by LC-MS analysis; format: ADME, organism-based; parameters: dose 10 mg/kg, route oral; conditions: read-out: Drug uptake
[10] = tested on: Rattus norvegicus; test: Toxicity against po dosed rat assessed as adverse effect administered as subchronical dose; format: organism-based; conditions: in vivo
[11] = Drug uptake in tumor of nude NCr mouse xenografted with human MDA-MB-231T cells at 20 mg/kg, po measured after 24 hrs by LC-MS analysis; format: ADME, organism-based, Neoplasm; parameters: dose 20 mg/kg, route oral; conditions: read-out: Drug uptake
[12] = tested on: Salmonella typhimurium; test: Mutagenic activity in Salmonella typhimurium by Ames test; format: toxicity, organism-based; conditions: salmonella enterica subsp. enterica serovar typhimurium
[13] = Drug uptake in brain of nude NCr mouse xenografted with human MDA-MB-231T cells at 20 mg/kg, po measured after 24 hrs by LC-MS analysis; format: ADME, organism-based; parameters: dose 20 mg/kg, route oral; conditions: read-out: Drug uptake
[14] = Plasma concentration in nude NCr mouse xenografted with human MDA-MB-231T cells at 20 mg/kg, po measured after 24 hrs by LC-MS analysis; format: ADME, organism-based; parameters: dose 20 mg/kg, route oral
[15] = tested on: Mus musculus; test: Inhibition of MEK-mediated ERK T202/Y204 phosphorylation in human MDA-MB-231T cells xenografted in nude NCr mouse tumor at 5 mg/kg, po after 24 hrs by immunoblotting; format: functional
[16] = Drug metabolism in human liver microsomes at 15 uM after 30 mins; format: ADME, Microsome; conditions: read-out: Drug metabolism
[17] = target: Dual specificity mitogen-activated protein kinase kinase; MEK1/2 (Homo sapiens, UniProt P36507+Q02750)
Description: Inhibition of MEK-mediated ERK T202/Y204 phosphorylation in human MDA-MB-231T cells after 1 hr by immunoblotting

[18] = Drug uptake in tumor of nude NCr mouse xenografted with human MDA-MB-231T cells at 5 mg/kg, po measured after 24 hrs by LC-MS analysis; format: ADME, organism-based; parameters: dose 5 mg/kg, route oral; conditions: read-out: Drug uptake
[19] = Drug uptake in tumor of nude NCr mouse xenografted with human MDA-MB-231T cells at 10 mg/kg, po measured after 24 hrs by LC-MS analysis; format: ADME, organism-based, Neoplasm; parameters: dose 10 mg/kg, route oral; conditions: read-out: Drug uptake
[20] = tested on: Mus musculus; test: Inhibition of MEK-mediated ERK T202/Y204 phosphorylation in nude NCr mouse brain xenografted with human MDA-MB-231T cells at 20 mg/kg, po after 24 hrs by immunoblotting; format: functional
[21] = Half life in Sprague-Dawley rat at 5 mg/kg, po; format: ADME, organism-based; parameters: dose 5 mg/kg, route oral; conditions: in vivo
[22] = target: Dual specificity mitogen-activated protein kinase kinase 1 (Homo sapiens, UniProt Q02750)
Description: Inhibition of MEK1-mediated ERK2 T202/Y204 phosphorylation using biotinylated MBP as substrate preincubated for 30 mins measured after 100 mins by cRAF-MEK-ERK enzyme coupled assay

[23] = Drug uptake in tumor of nude NCr mouse xenografted with human MDA-MB-231T cells at 100 mg/kg, po measured after 24 hrs by LC-MS analysis; format: ADME, organism-based, Neoplasm; parameters: dose 100 mg/kg, route oral; conditions: read-out: Drug uptake
[24] = Drug uptake in brain of nude NCr mouse xenografted with human MDA-MB-231T cells at 100 mg/kg, po measured after 24 hrs by LC-MS analysis; format: ADME, organism-based; parameters: dose 100 mg/kg, route oral; conditions: read-out: Drug uptake
[25] = Antitumor activity against human MDA-MB-231T cells xenografted in athymic nude NCr mouse assessed as tumor growth inhibition at 1 mg/kg administered qd for 14 days relative to control; format: functional; conditions: 336 h, read-out: GI
[26] = tested on: Mus musculus; test: Inhibition of MEK-mediated ERK T202/Y204 phosphorylation in nude NCr mouse brain xenografted with human MDA-MB-231T cells at 100 mg/kg, po after 24 hrs by immunoblotting; format: functional
[27] = tested on: Mus musculus; test: Inhibition of MEK-mediated ERK T202/Y204 phosphorylation in human MDA-MB-231T cells xenografted in po dosed nude NCr mouse tumor after 24 hrs by immunoblotting; format: functional
[28] = Plasma concentration in athymic nude NCr mouse xenografted with human MDA-MB-231T cells at 3 mg/kg administered qd for 14 days; format: ADME, organism-based; parameters: dose 3 mg/kg
[29] = tested on: Rattus norvegicus; test: Dose normalised AUC (0 to t) in Sprague-Dawley rat at 5 mg/kg, po; format: ADME, organism-based; parameters: dose 5 mg/kg, route oral; conditions: in vivo
[30] = Plasma concentration in nude NCr mouse xenografted with human MDA-MB-231T cells at 10 mg/kg, po measured after 24 hrs by LC-MS analysis; format: ADME, organism-based; parameters: dose 10 mg/kg, route oral
[31] = Plasma concentration in nude NCr mouse xenografted with human MDA-MB-231T cells at 5 mg/kg, po measured after 24 hrs by LC-MS analysis; format: ADME, organism-based; parameters: dose 5 mg/kg, route oral
[32] = tested on: Mus musculus; test: Inhibition of MEK-mediated ERK T202/Y204 phosphorylation in nude NCr mouse brain xenografted with human MDA-MB-231T cells at 10 mg/kg, po after 24 hrs by immunoblotting; format: functional
[33] = tested on: Mus musculus; test: Inhibition of MEK-mediated ERK T202/Y204 phosphorylation in human MDA-MB-231T cells xenografted in nude NCr mouse tumor at 10 mg/kg, po after 24 hrs by immunoblotting; format: functional
[34] = Clearance in Sprague-Dawley rat at 5 mg/kg, po; format: ADME, organism-based; parameters: dose 5 mg/kg, route oral; conditions: in vivo
[35] = tested on: Mus musculus; test: Inhibition of MEK-mediated ERK T202/Y204 phosphorylation in nude NCr mouse brain xenografted with human MDA-MB-231T cells at 5 mg/kg, po after 24 hrs by immunoblotting; format: functional
[36] = Antitumor activity against human MDA-MB-231T cells xenografted in athymic nude NCr mouse assessed as tumor growth inhibition at 3 mg/kg administered qd for 14 days relative to control; format: functional; conditions: 336 h, read-out: GI
[37] = Drug metabolism in rat liver microsomes at 15 uM after 30 mins; format: ADME, Microsome; conditions: read-out: Drug metabolism

Sequence of Dual specificity mitogen-activated protein kinase kinase 1 (Q02750 whole entry): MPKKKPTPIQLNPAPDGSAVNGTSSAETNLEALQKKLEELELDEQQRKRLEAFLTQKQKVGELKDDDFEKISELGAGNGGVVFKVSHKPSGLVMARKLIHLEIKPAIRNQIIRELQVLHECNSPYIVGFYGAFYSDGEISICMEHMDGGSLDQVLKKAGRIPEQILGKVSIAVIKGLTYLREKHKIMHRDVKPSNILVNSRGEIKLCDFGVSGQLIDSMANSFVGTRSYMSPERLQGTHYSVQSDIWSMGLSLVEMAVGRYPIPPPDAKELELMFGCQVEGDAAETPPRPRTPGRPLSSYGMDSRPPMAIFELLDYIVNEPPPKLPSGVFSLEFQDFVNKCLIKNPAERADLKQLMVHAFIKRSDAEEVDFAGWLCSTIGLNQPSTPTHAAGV

Q: Which results are given for O=C(c1ccc(F)c(F)c1Nc1ccc(I)cc1F)N1CC(O)([C@@H]2CCCCN2)C1 [COBIMETINIB]?
A: inhibition in vivo at 20 mg/kg [1]: 75%; Papp [2]: 10.5 ×10⁻⁶ cm/s; concentration at 24 h [3]: 120 nM; Drug uptake [4]: Not Active; inhibition in vivo at 100 mg/kg [5]: 87%; bioavailability [6]: 77%; Activity [7]: 94%; concentration at 24 h [8]: < 4 nM; concentration at 24 h [9]: < 4 nM; Activity [10]: Non-toxic; concentration at 24 h [11]: 3590 nM; Activity [12]: Non-toxic; concentration at 24 h [13]: < 4 nM; concentration at 24 h [14]: 100 nM; inhibition in vivo at 5 mg/kg [15]: 16%; metabolised at 0.5 h, 15 µM [16]: 13.8%; IC50 [17]: 0.2 nM; concentration at 24 h [18]: 530 nM; concentration at 24 h [19]: 1990 nM; inhibition in vivo at 20 mg/kg [20]: 2%; half-life [21]: 6.1 h; IC50 [22]: 0.9 nM; concentration at 24 h [23]: 22800 nM; concentration at 24 h [24]: 220 nM; inhibition in vivo at 1 mg/kg [25]: 60%; inhibition in vivo at 100 mg/kg [26]: 0%; ED90 [27]: 39.7 mg/kg; concentration at 336 h [28]: 130 nM; AUCt/dose [29]: 0.35 µM·h/mg/kg; concentration at 24 h [30]: 100 nM; concentration at 24 h [31]: < 4 nM; inhibition in vivo at 10 mg/kg [32]: 7%; inhibition in vivo at 10 mg/kg [33]: 45%; CL/F [34]: 59.4 mL/min/kg; inhibition in vivo at 5 mg/kg [35]: 8%; inhibition in vivo at 3 mg/kg [36]: 93%; metabolised at 0.5 h, 15 µM [37]: 22.4%
